Source: ChEMBL document CHEMBL1201862, “PubChem BioAssay data set” (2004)
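Values below derive from 48-hour exposures of cells grown in 96-well plates, with endpoints linearly interpolated between the two concentrations bracketing the appropriate inhibition level. The concentration for 50% growth inhibition is given as GI50.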 Active and inactive are the calls of the source. No stated cut-off is given here; in the data, active = GI50 up to about 1.1 µM and inactive = higher.

Experiments:
Assay in all cases: NCI-60 cell line screen, 48 h
OVCAR-4 = test system: OVCAR-4
SK-OV-3 = test system: SK-OV-3
NCI-H23 = test system: NCI-H23
SNB-75 = test system: SNB-75
UACC-62 = test system: UACC-62
HOP-62 = test system: HOP-62
K562 = test system: K562
KM12 = test system: KM12
MCF7 = test system: MCF7
SK-MEL-2 = test system: SK-MEL-2
HL-60 = test system: HL-60
NCI-H522 = test system: NCI-H522
HT-29 = test system: HT-29
ACHN = test system: ACHN
OVCAR-8 = test system: OVCAR-8
HCT-116 = test system: HCT-116
SN12C = test system: SN12C
SF-295 = test system: SF-295
HCC 2998 = test system: HCC 2998
A549 = test system: A549
LOX IMVI = test system: LOX IMVI
RPMI-8226 = test system: RPMI-8226
SF-268 = test system: SF-268
SK-MEL-28 = test system: SK-MEL-28
CAKI-1 = test system: CAKI-1
NCI-H460 = test system: NCI-H460
U-251 = test system: U-251
T47D = test system: T47D
OVCAR-5 = test system: OVCAR-5
M14 = test system: M14
MDA-N = test system: MDA-N
MOLT-4 = test system: MOLT-4
COLO 205 = test system: COLO 205
UO-31 = test system: UO-31
UACC-257 = test system: UACC-257
PC-3 = test system: PC-3
SF-539 = test system: SF-539
BT-549 = test system: BT-549
TK-10 = test system: TK-10
CCRF-CEM = test system: CCRF-CEM
HCT-15 = test system: HCT-15
NCI-H226 = test system: NCI-H226
NCI/ADR-RES = test system: NCI/ADR-RES
SW-620 = test system: SW-620
SK-MEL-5 = test system: SK-MEL-5
Hs-578T = test system: Hs-578T
SR = test system: SR
SNB-19 = test system: SNB-19
Malme-3M = test system: Malme-3M
786-0 = test system: 786-0
EKVX = test system: EKVX
IGROV-1 = test system: IGROV-1
DU-145 = test system: DU-145
MDA-MB-231 = test system: MDA-MB-231
HOP-92 = test system: HOP-92
RXF 393 = test system: RXF 393
A498 = test system: A498
OVCAR-3 = test system: OVCAR-3
MDA-MB-435 = test system: MDA-MB-435

Measured: GI50

C=C(C)[C@@]1(OC(=O)c2cc([N+](=O)[O-])cc([N+](=O)[O-])c2)C[C@@H]2CCCC[C@@H]21
> 100 µM: HCT-15
inactive: OVCAR-4 56.2 µM | SK-OV-3 > 100 µM | NCI-H23 > 100 µM | SNB-75 > 100 µM | UACC-62 > 100 µM | HOP-62 62.4 µM | K562 > 100 µM | KM12 > 100 µM | MCF7 64 µM | SK-MEL-2 58.3 µM | HL-60 95.1 µM | NCI-H522 > 100 µM | HT-29 47.9 µM | ACHN > 100 µM | OVCAR-8 > 100 µM | HCT-116 > 100 µM | SN12C > 100 µM | SF-295 72.9 µM | HCC 2998 59.6 µM | A549 39.4 µM | LOX IMVI > 100 µM | RPMI-8226 45.4 µM | SF-268 > 100 µM | SK-MEL-28 > 100 µM | CAKI-1 > 100 µM | NCI-H460 46.9 µM | U-251 > 100 µM | T47D > 100 µM | OVCAR-5 > 100 µM | M14 53.6 µM | MDA-N > 100 µM | MOLT-4 > 100 µM | COLO 205 39.2 µM | UO-31 16.4 µM | UACC-257 > 100 µM | PC-3 > 100 µM | SF-539 > 100 µM | BT-549 > 100 µM | TK-10 > 100 µM | CCRF-CEM > 100 µM | NCI-H226 > 100 µM | NCI/ADR-RES > 100 µM | SW-620 > 100 µM | SK-MEL-5 > 10 µM | Hs-578T > 100 µM | SR > 100 µM | SNB-19 > 100 µM | Malme-3M 34.2 µM | 786-0 > 100 µM | EKVX 37.2 µM | IGROV-1 > 100 µM | DU-145 > 100 µM | MDA-MB-231 > 100 µM

CC(=O)Oc1ccc2c(c1)CC[C@@H]1C2[C@@H](O[N+](=O)[O-])C[C@@]2(C)C1CC[C@@H]2O[N+](=O)[O-] (some centres undefined)
13.3 µM: HCT-15
inactive: OVCAR-4 16.3 µM | NCI-H23 12.7 µM | SNB-75 13.5 µM | UACC-62 13.9 µM | HOP-62 6.82 µM | K562 6.5 µM | KM12 14.1 µM | HOP-92 10.1 µM | MCF7 9.42 µM | RXF 393 11.5 µM | SK-MEL-2 15.4 µM | HL-60 16.4 µM | NCI-H522 11.1 µM | HT-29 16.4 µM | ACHN 8.69 µM | OVCAR-8 14.6 µM | HCT-116 10.2 µM | SN12C 15.5 µM | SF-295 10.7 µM | HCC 2998 1.63 µM | A549 13.2 µM | LOX IMVI 13.7 µM | RPMI-8226 7.41 µM | SF-268 13.3 µM | SK-MEL-28 14.5 µM | A498 18.6 µM | CAKI-1 19.3 µM | NCI-H460 12.8 µM | U-251 14 µM | T47D 6.97 µM | OVCAR-3 13.2 µM | OVCAR-5 19.4 µM | M14 14 µM | MDA-N 14.3 µM | MOLT-4 10.4 µM | COLO 205 16.8 µM | UO-31 12.3 µM | UACC-257 11.1 µM | PC-3 10.5 µM | SF-539 18.2 µM | BT-549 17.6 µM | TK-10 19.8 µM | CCRF-CEM 9.1 µM | NCI/ADR-RES 14.3 µM | SW-620 16.1 µM | SK-MEL-5 9.75 µM | Hs-578T 19.1 µM | SR 5.31 µM | SNB-19 16.9 µM | Malme-3M 13.7 µM | 786-0 14.5 µM | EKVX 12.3 µM | MDA-MB-435 15.5 µM | IGROV-1 15.1 µM | DU-145 14.2 µM

COc1ccc2nc3cc([N+](=O)[O-])ccc3c(Nc3ccc(S(=O)(=O)NC(C)=O)cc3)c2c1
inactive: OVCAR-4 > 100 µM | SK-OV-3 > 100 µM | NCI-H23 > 100 µM | UACC-62 73.3 µM | HOP-62 > 100 µM | K562 37.2 µM | HOP-92 > 100 µM | MCF7 30.8 µM | RXF 393 > 100 µM | SK-MEL-2 > 100 µM | HL-60 26.5 µM | NCI-H522 33.2 µM | HT-29 65 µM | ACHN 88.1 µM | HCT-116 44 µM | SN12C > 100 µM | SF-295 > 100 µM | HCC 2998 56.6 µM | A549 > 100 µM | LOX IMVI 93.3 µM | RPMI-8226 22.1 µM | SF-268 > 100 µM | SK-MEL-28 > 100 µM | A498 > 100 µM | CAKI-1 > 100 µM | NCI-H460 40.6 µM | U-251 44.8 µM | T47D > 100 µM | OVCAR-3 38.1 µM | OVCAR-5 > 100 µM | M14 > 100 µM | MDA-N > 100 µM | MOLT-4 29.4 µM | COLO 205 51.3 µM | UO-31 73.6 µM | UACC-257 > 100 µM | PC-3 45.5 µM | SF-539 > 100 µM | BT-549 > 100 µM | TK-10 53.2 µM | CCRF-CEM 23.9 µM | NCI-H226 > 100 µM | SW-620 46.8 µM | SK-MEL-5 16.6 µM | Hs-578T 85.9 µM | SR 11.5 µM | SNB-19 > 100 µM | Malme-3M > 100 µM | 786-0 47 µM | EKVX 85.3 µM | MDA-MB-435 76.4 µM | DU-145 90.6 µM | MDA-MB-231 50 µM
71.1 µM: HCT-15
